# Assay results reported in US20200290950A1, “ALKAMIDE COMPOUNDS AND USES THEREOF” (NORTH CAROLINA STATE UNIVERSITY, priority 2017, published 2020).
# What was measured:
# BMMCs = experiment: Toluidine blue staining of granules in BMMCs; assay type: cell-based, mouse
# Method: FIG. 2. A15 inhibits granule release from BMMCs. […] BMMCs were cytocentrifuged onto a glass slide, fixed, stained with toluidine blue (1%, pH<1) for 30 min, and washed before observing microscopically. Images were acquired at 400× magnification and are representative.
# TDI-induced ear swelling = assay type: in vivo, mouse
# Source text: Several different model systems were utilized for these experiments. In one model, dorsal root ganglia were obtained from mice and the neurons cultured in vitro. The neurons were then stimulated in the presence/absence of A15 and YM8-85 and the calcium responses monitored by fluorescence microscopy. In the second model, the alkamides were applied to mouse skin in mineral oil. The reactions of these mice to heat, cold, and tactile stimulation was then compared with mice that had not received treatment with A15. In a third model, mice were sensitized to the chemical compound toluene-2,4-diisocyanate (TDI). TDI is an industrial chemical which causes hypersensitive skin lesions and itching in exposed humans and animals. The physiological response to TDI is complex involving type 2 T lymphocytes, cytokines, mast cells, and neurons. Alkamides were applied to sensitized animals and then ear swelling and bouts of scratching were monitored.
# A15 and TDI induced hypersensitivity. Mice were sensitized to toluene-2,4-diisocyanate (TDI) via abdominal application. Subsequently, a hypersensitive response was induced in the ear by direct application of TDI and ear thickness measured as a sign of inflammation.
smiles,measurement,setting,value
"CCCCCCC/C=C/C=C/C(=O)NCC(C)C [A15, (2E,4E)-N-Isobutyldodeca-2,4-dienamide]","toluidine blue staining, compound alone","BMMCs; 100 μM A15 alone, 30 min",did not noticeably affect staining
same,A23187-induced reduction of toluidine blue staining (granule release),"BMMCs; 100 μM A15 with 1 μM A23187, 30 min",blocked
same,TDI ear swelling (ear thickness),"TDI-induced ear swelling; 0.1%, first experiment (FIG. 13A)",significant inhibitory effect
same,TDI ear swelling (ear thickness),"TDI-induced ear swelling; 0.1%, repeated experiment (FIG. 13B)",neither A15 nor YM8-85 at 0.1% produced significant inhibition
same,TDI ear swelling (ear thickness),"TDI-induced ear swelling; 1%, first experiment (FIG. 13A)",significant responses were not seen
